Measured values published in the OligoGym collection.
Where “and” joins values, the source holds several entries; their conditions need not be identical. Equal values may be shown once. After the bases stand the sugars from the 5' end (letter, count) and the backbone: PS all phosphorothioate, else s phosphorothioate and o phosphodiester by linkage. Methylation of C is not given here. e = 2'-O-(2-methoxyethyl) (MOE); k = constrained ethyl (cEt); d = 2'-deoxy (DNA)

Target: IRF5
Conditions: ASO

Sequence | target mRNA inhibition (KARPAS-229, 4 µM) | other results
GTTCTTGGACTCTCAA (sugars kkkddddddddkekek, PS) | 0% | 
GTTGAATTTTGTGACT (sugars k3 d9 k3 d1, PS) | 0% | 
TAATAGGAGTGAGACG (sugars k3 d10 k3, PS) | 12% | 
TATCTCCGTCCTGGCT (sugars kddddddddddkekek, PS) | 0% | 
TATTTCTGCTCCAGGT (sugars k3 d9 k3 e1, PS) | 45% and 67% | target mRNA inhibition (KARPAS-229, 0.44444 µM): 46%; target mRNA inhibition (KARPAS-229, 1.33333 µM): 52%; target mRNA inhibition (KARPAS-229, 12 µM): 74%
TATTTCTGCTCCAGGT (sugars kkdddddddddkekek, PS) | 5% | 
TCACCACTGTGTACCC (sugars k3 d9 k3 e1, PS) | 21% | 
TCACCACTGTGTACCC (sugars kkddddddddddkeke, PS) | 0% | 
TCACCACTGTGTACCC (sugars kkdddddddddkdkdk, PS) | 0% | 
TCAGCTTTCTTGTCTA (sugars k3 d10 k3, PS) | 15% | 
TCCAATTTTGCATTCC (sugars k3 d9 k3 e1, PS) | 7% | 
TCCAATTTTGCATTCC (sugars kddddddddddkekek, PS) | 37% | 
TCCAATTTTGCATTCC (sugars kdddddddddkekeke, PS) | 6% | 
TCCAATTTTGCATTCC (sugars kekdddddddddeekk, PS) | 78% and 76% | target mRNA inhibition (KARPAS-229, 0.44444 µM): 42%; target mRNA inhibition (KARPAS-229, 1.33333 µM): 68%; target mRNA inhibition (KARPAS-229, 12 µM): 82%
TCTGATATGATACCTA (sugars k3 d2 k1 d7 k3, PS) |  | target mRNA inhibition (A-431, 0.00412 µM): 4%; target mRNA inhibition (A-431, 0.01225 µM): 8%; target mRNA inhibition (A-431, 0.03704 µM): 36%; target mRNA inhibition (A-431, 0.11111 µM): 54%; target mRNA inhibition (A-431, 0.33333 µM): 69%; target mRNA inhibition (A-431, 1 µM): 74%
TCTGGCCCTTTTGGAA (sugars kdddddddddkekeke, PS) | 0% | 
TCTTGACCTCCCGCTG (sugars kkddddddddkekekk, PS) | 19% | 
TCTTGTCTAGTGTCAT (sugars k3 d10 k3, PS) | 0% | 
TGAGTCATGGAGCTGAG (sugars kdddddddddkekeked, PS) | 0% | 
TGAGTCATGGGCTGAG (sugars kkdddddddddkekek, PS) | 0% | 
TGAGTCATGGGCTGAG (sugars kkddddddddkekekk, PS) | 0% | 
TGAGTCTCAAACCAGG (sugars k2 d8 e4 k2, PS) | 0% | 
TGAGTCTCAAACCAGG (sugars kkdddddddddkdkdk, PS) | 0% | 

Sequence | target mRNA inhibition (KARPAS-229, 4 µM) | other results
TGATTCCAATTTTGCA (sugars k3 d10 k3, PS) | 17% | 
TGCAACATCCATCAAT (sugars k3 d10 k2 d1, PS) | 0% | 
TGCACTGACACAGGCG (sugars k2 d8 e4 k2, PS) | 0% | 
TGCACTGACACAGGCG (sugars kkddddddddkekekk, PS) | 0% | 
TGTCTAGTGTCATGGA (sugars k2 d8 e4 k2, PS) | 54% | 
TTAAGGGCACAGCGCA (sugars k3 d10 k3, PS) | 0% | 
TTATCTCCGTCCTGGC (sugars kkkddddddddkekek, PS) | 0% | 
TTATTTCTGCTCCAGG (sugars k3 d9 k3 e1, PS) | 28% | 
TTATTTCTGCTCCAGG (sugars kkddddddddddkeke, PS) | 26% | 
TTATTTCTGCTCCAGG (sugars kkddddddddkekekk, PS) | 0% | 
TTATTTCTGCTCCAGG (sugars kkkddddddddkekek, PS) | 23% | 
TTCTGCAGGGAGTCAG (sugars kddddddddddkekek, PS) | 4% | 
TTCTGCAGGGAGTCAG (sugars kdddddddddkekeke, PS) | 0% | 
TTCTTGGACTCTCAAG (sugars kkddddddddkekekk, PS) | 0% | 
TTCTTGTCTAGTGTCA (sugars k3 d10 k3, PS) | 49% | 
TTGAATTTTGTGACTG (sugars k3 d10 k3, PS) | 45% | 
TTGCCTTCTGCAGGGA (sugars k3 d10 k3, PS) | 0% | 
TTGTCTAGTGTCATGG (sugars k3 d10 k3, PS) | 60% and 70% | target mRNA inhibition (KARPAS-229, 0.44444 µM): 37%; target mRNA inhibition (KARPAS-229, 12 µM): 84%
TTGTCTAGTGTCATGG (sugars kekdddddddddeekk, PS) | 55% | 
TTGTCTAGTGTCATGG (sugars kkddddddddddkeke, PS) | 38% | 
TTGTCTAGTGTCATGG (sugars kkkdddddddddkeke, PS) | 39% | 
TTGTCTAGTGTCATGG (sugars kkkddddddddkdkdk, PS) | 36% | 
TTGTGACTGTATTACC (sugars k3 d10 k3, PS) | 56% | 
